Measured values from patent US9034897B2, “Indanyl-substituted 4,5,6,7-tetrahydro-1H-pyrazolo[4,3-C]pyridines, their use as medicament, and pharmaceutical preparations comprising them” (SANOFI, priority 2011, dated 2015).

What follows are molecules tested against Human TASK-1 channels (Homo sapiens (Human), UniProt O14649) (assay: Activity on the TASK-1 channel in Xenopus oocytes (two-microelectrode voltage clamp)). Details: 5 μM; percentage inhibition of TASK-1 control current, Xenopus oocytes.
Type: cell-based
Description: Determination of the activity on the TASK-1 channel in Xenopus oocytes:
Human TASK-1 channels were expressed in Xenopus oocytes. For this purpose, oocytes were isolated from Xenopus laevis and defolliculated. Subsequently, TASK-1-encoding RNA synthesized in vitro was injected into oocytes. After two days of TASK-1 protein expression, TASK-1 currents were measured by two-microelectrode voltage clamp. Data were acquired and analyzed using a TEC-10cx amplifier (NPI Electronic, Tamm, Germany) connected to an ITC-16 interface (Instrutech Corp., Long Island, USA) and Pulse software (HEKA Elektronik, Lambrecht, Germany). Oocytes were clamped to −90 mV and TASK-1 mediated currents were measured during 500 ms voltage pulses to 40 mV. Oocytes were continuously superfused with ND96 buffer containing: NaCl 96 mM, KCl2 mM, CaCl2 1.8 mM, MgCl2 1 mM, HEPES 5 mM (pH adjusted to 7.4 with NaOH). All experiments were performed at room temperature.
Test substances were consecutively added to the bath solution at rising concentrations. Compound effects were calculated as the percentage inhibition of
TASK-1 control current before compound application. IC50 values were obtained by fitting the data to the general dose-response equation.

Human TASK-1 channels, sequence (O14649 whole entry): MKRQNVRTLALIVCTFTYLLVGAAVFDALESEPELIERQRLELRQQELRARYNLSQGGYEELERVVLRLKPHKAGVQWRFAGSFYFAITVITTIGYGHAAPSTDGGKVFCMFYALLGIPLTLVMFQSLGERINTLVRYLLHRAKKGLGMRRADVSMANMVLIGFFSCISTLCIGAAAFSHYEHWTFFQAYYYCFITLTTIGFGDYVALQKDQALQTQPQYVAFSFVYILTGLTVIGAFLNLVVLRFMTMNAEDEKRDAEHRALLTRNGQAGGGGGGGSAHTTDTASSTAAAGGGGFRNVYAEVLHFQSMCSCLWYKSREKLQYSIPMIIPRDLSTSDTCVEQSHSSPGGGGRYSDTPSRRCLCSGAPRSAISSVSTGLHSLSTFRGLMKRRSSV

`CC(=O)N1CCc2c(c(-c3ccc(C(F)(F)F)cc3)nn2[C@@H]2c3cc(F)cc(F)c3C[C@H]2O)C1` [Example 11ae, 1-[1-((1R,2R)-4,6-Difluoro-2-hydroxy-indan-1-yl)-3-(4-trifluoromethyl-phenyl)-1,4,6,7-tetrahydro-pyrazolo[4,3-c]pyridin-5-yl]-ethanone] was tested. Which inhibition at 5 µM did it give?
The inhibition at 5 µM was 61%.

Same assay, conditions: human TASK-1 expressed in Xenopus oocytes, currents during 500 ms pulses to 40 mV, room temperature

For `CC(=O)N1CCc2c(c(-c3ccc(F)cc3)nn2[C@@H]2c3c(Cl)cc(Cl)cc3C[C@H]2O)C1` (racemic) [Example 11ac, racemic 1-[1-((1R,2R)-5,7-Dichloro-2-hydroxy-indan-1-yl)-3-(4-fluoro-phenyl)-1,4,6,7-tetrahydro-pyrazolo[4,3-c]pyridin-5-yl]-ethanone], which IC50 is on record?
Its IC50 is 3880 nM.

Which IC50 does the source give for `CC(=O)N1CCc2c(c(-c3ccc(F)c(C(F)(F)F)c3)nn2[C@H]2c3cc(F)cc(F)c3C[C@]2(C)O)C1` (racemic) [Example 11i, racemic 1-[1-((1S,2S)-4,6-Difluoro-2-hydroxy-2-methyl-indan-1-yl)-3-(4-fluoro-3-trifluoromethyl-phenyl)-1,4,6,7-tetrahydro-pyrazolo[4,3-c]pyridin-5-yl]-ethanone] here?
Its IC50 is 375 nM.

With `CC(=O)N1CCc2c(c(-c3ccc(F)cc3)nn2[C@@H]2c3cc(Cl)c(Cl)cc3C[C@H]2O)C1` (racemic) [Example 11u, racemic 1-[1-((1R,2R)-5,6-Dichloro-2-hydroxy-indan-1-yl)-3-(4-fluoro-phenyl)-1,4,6,7-tetrahydro-pyrazolo[4,3-c]pyridin-5-yl]-ethanone] as the molecule, how does the IC50 read?
The IC50 was 1010 nM.

Which IC50 does the source give for `CC(=O)N1CCc2c(c(-c3cccc(C#N)c3)nn2[C@@H]2c3cc(F)cc(F)c3C[C@@]2(C)O)C1` (racemic) [Example 11w, Racemic 3-[5-Acetyl-1-((1R,2R)-4,6-difluoro-2-hydroxy-2-methyl-indan-1-yl)-4,5,6,7-tetrahydro-1H-pyrazolo[4,3-c]pyridin-3-yl]-benzonitrile] here?
The IC50 was 1260 nM.

With `CC(=O)N1CCc2c(c(-c3cccc(OC(F)(F)F)c3)nn2[C@@H]2c3cc(F)cc(F)c3C[C@H]2O)C1` [Example 11a, 1-[1-((1R,2R)-4,6-Difluoro-2-hydroxy-indan-1-yl)-3-(3-trifluoromethoxy-phenyl)-1,4,6,7-tetrahydro-pyrazolo[4,3-c]pyridin-5-yl]-ethanone] as the molecule, how does the IC50 read?
Its IC50 is 171 nM.

With `CC(=O)N1CCc2c(c(-c3cccc(F)c3)nn2[C@@H]2c3cc(F)cc(F)c3C[C@H]2O)C1` [Example 11aa, 1-[1-((1R,2R)-4,6-Difluoro-2-hydroxy-indan-1-yl)-3-(3-fluoro-phenyl)-1,4,6,7-tetrahydro-pyrazolo[4,3-c]pyridin-5-yl]-ethanone] as the molecule, how does the IC50 read?
Its IC50 is 2220 nM.

Which IC50 does the source give for `CC(=O)N1CCc2c(c(-c3ccc(Cl)cc3)nn2[C@@H]2c3cc(F)cc(F)c3C[C@H]2O)C1` [Example 11ab, 1-[3-(4-Chloro-phenyl)-1-((1R,2R)-4,6-difluoro-2-hydroxy-indan-1-yl)-1,4,6,7-tetrahydro-pyrazolo[4,3-c]pyridin-5-yl]-ethanone] here?
Its IC50 is 2970 nM.

How did the IC50 turn out when `COc1ccc(-c2nn([C@@H]3c4cc(F)cc(F)c4C[C@H]3O)c3c2CN(C(C)=O)CC3)cc1` [Example 11ad, 1-[1-((1R,2R)-4,6-Difluoro-2-hydroxy-indan-1-yl)-3-(4-methoxy-phenyl)-1,4,6,7-tetrahydro-pyrazolo[4,3-c]pyridin-5-yl]-ethanone] was run?
Its IC50 is 6890 nM.

With `CC(=O)N1CCc2c(c(-c3cccc(Cl)c3)nn2[C@H]2c3cc(F)cc(F)c3C[C@@H]2O)C1` [Example 11b, 1-[3-(3-Chloro-phenyl)-1-((1S,2S)-4,6-difluoro-2-hydroxy-indan-1-yl)-1,4,6,7-tetrahydro-pyrazolo[4,3-c]pyridin-5-yl]-ethanone] as the molecule, how does the IC50 read?
The IC50 was 190 nM.

`COc1ccc(F)c(-c2nn([C@@H]3c4cc(F)cc(F)c4C[C@H]3O)c3c2CN(C(C)=O)CC3)c1` [Example 11c, 1-[1-((1R,2R)-4,6-Difluoro-2-hydroxy-indan-1-yl)-3-(2-fluoro-5-methoxy-phenyl)-1,4,6,7-tetrahydro-pyrazolo[4,3-c]pyridin-5-yl]-ethanone] was tested. Which IC50 did it give?
The IC50 was 204 nM.

Which IC50 does the source give for `CC(=O)N1CCc2c(c(-c3cccc(C#N)c3)nn2[C@@H]2c3cc(F)cc(Br)c3C[C@H]2O)C1` [Example 11d, 3-[5-Acetyl-1-((1R,2R)-4-bromo-6-fluoro-2-hydroxy-indan-1-yl)-4,5,6,7-tetrahydro-1H-pyrazolo[4,3-c]pyridin-3-yl]-benzonitrile] here?
The IC50 was 226 nM.

Which IC50 does the source give for `CC(=O)N1CCc2c(c(-c3cccc(C(F)(F)F)n3)nn2[C@@H]2c3cc(F)cc(F)c3C[C@H]2O)C1` [Example 11e, 1-[1-((1R,2R)-4,6-Difluoro-2-hydroxy-indan-1-yl)-3-(6-trifluoromethyl-pyridin-2-yl)-1,4,6,7-tetrahydro-pyrazolo[4,3-c]pyridin-5-yl]-ethanone] here?
The IC50 was 239 nM.

For `CC(=O)N1CCc2c(c(-c3ccc(F)c(C(F)(F)F)c3)nn2[C@@H]2c3cc(F)cc(F)c3C[C@H]2O)C1` [Example 11f, 1-[1-((1R,2R)-4,6-Difluoro-2-hydroxy-indan-1-yl)-3-(4-fluoro-3-trifluoromethyl-phenyl)-1,4,6,7-tetrahydro-pyrazolo[4,3-c]pyridin-5-yl]-ethanone], which IC50 is on record?
The IC50 was 270 nM.

With `CC(=O)N1CCc2c(c(-c3cccc(C#N)c3)nn2[C@@H]2c3cc(Cl)cc(Cl)c3C[C@H]2O)C1` [Example 11g, 3-[5-Acetyl-1-((1R,2R)-4,6-dichloro-2-hydroxy-indan-1-yl)-4,5,6,7-tetrahydro-1H-pyrazolo[4,3-c]pyridin-3-yl]-benzonitrile] as the molecule, how does the IC50 read?
Its IC50 is 350 nM.

`CC(=O)N1CCc2c(c(-c3cccc(C(F)(F)F)c3)nn2[C@H]2c3cc(F)cc(F)c3C[C@@H]2O)C1` [Example 11h, 1-[1-((1S,2S)-4,6-Difluoro-2-hydroxy-indan-1-yl)-3-(3-trifluoromethyl-phenyl)-1,4,6,7-tetrahydro-pyrazolo[4,3-c]pyridin-5-yl]-ethanone] was tested. Which IC50 did it give?
The IC50 was 370 nM.

How did the IC50 turn out when `COc1cccc(-c2nn([C@@H]3c4cc(F)cc(F)c4C[C@H]3O)c3c2CN(C(C)=O)CC3)c1` [Example 11k, 1-[1-((1R,2R)-4,6-Difluoro-2-hydroxy-indan-1-yl)-3-(3-methoxy-phenyl)-1,4,6,7-tetrahydro-pyrazolo[4,3-c]pyridin-5-yl]-ethanone] was run?
The IC50 was 442 nM.

Which IC50 does the source give for `CC(=O)N1CCc2c(c(-c3ccc(F)cc3)nn2[C@@H]2c3cc(F)cc(F)c3C[C@H]2O)C1` [Example 11l, 1-[1-((1R,2R)-4,6-Difluoro-2-hydroxy-indan-1-yl)-3-(4-fluoro-phenyl)-1,4,6,7-tetrahydro-pyrazolo[4,3-c]pyridin-5-yl]-ethanone] here?
The IC50 was 495 nM.

`CC(=O)N1CCc2c(c(-c3cccc(C(F)(F)F)n3)nn2[C@@H]2c3cc(Cl)cc(Cl)c3C[C@H]2O)C1` [Example 11m, 1-[1-((1R,2R)-4,6-Dichloro-2-hydroxy-indan-1-yl)-3-(6-trifluoromethyl-pyridin-2-yl)-1,4,6,7-tetrahydro-pyrazolo[4,3-c]pyridin-5-yl]-ethanone] was tested. Which IC50 did it give?
Its IC50 is 518 nM.

For `CC(=O)N1CCc2c(c(-c3ccc(F)cc3)nn2[C@@H]2c3cc(Cl)cc(F)c3C[C@H]2O)C1` [Example 11n, 1-[1-((1R,2R)-6-Chloro-4-fluoro-2-hydroxy-indan-1-yl)-3-(4-fluoro-phenyl)-1,4,6,7-tetrahydro-pyrazolo[4,3-c]pyridin-5-yl]-ethanone], which IC50 is on record?
The IC50 was 568 nM.

For `CC(=O)N1CCc2c(c(-c3cccc(C#N)c3)nn2[C@H]2c3cc(F)cc(F)c3C[C@@H]2O)C1` [Example 11o, 3-[5-Acetyl-1-((1S,2S)-4,6-difluoro-2-hydroxy-indan-1-yl)-4,5,6,7-tetrahydro-1H-pyrazolo[4,3-c]pyridin-3-yl]-benzonitrile], which IC50 is on record?
The IC50 was 675 nM.

How did the IC50 turn out when `CC(=O)N1CCc2c(c(-c3cccc(C#N)c3)nn2[C@@H]2c3cc(Cl)ccc3C[C@H]2O)C1` [Example 11p, 3-[5-Acetyl-1-((1R,2R)-6-chloro-2-hydroxy-indan-1-yl)-4,5,6,7-tetrahydro-1H-pyrazolo[4,3-c]pyridin-3-yl]-benzonitrile] was run?
Its IC50 is 685 nM.

For `CC(=O)N1CCc2c(c(-c3cccc(C(F)(F)F)c3)nn2[C@@H]2c3cc(F)cc(F)c3C[C@H]2O)C1` [Example 11q, 1-[1-((1R,2R)-4,6-Difluoro-2-hydroxy-indan-1-yl)-3-(3-trifluoromethyl-phenyl)-1,4,6,7-tetrahydro-pyrazolo[4,3-c]pyridin-5-yl]-ethanone], which IC50 is on record?
The IC50 was 773 nM.

With `CC(=O)N1CCc2c(c(-c3cccc(OC(F)(F)F)c3)nn2[C@H]2c3cc(F)cc(F)c3C[C@@H]2O)C1` [Example 11r, 1-[1-((1S,2S)-4,6-Difluoro-2-hydroxy-indan-1-yl)-3-(3-trifluoromethoxy-phenyl)-1,4,6,7-tetrahydro-pyrazolo[4,3-c]pyridin-5-yl]-ethanone] as the molecule, how does the IC50 read?
The IC50 was 789 nM.

`CC(=O)N1CCc2c(c(-c3ccc(F)cc3)nn2[C@@H]2c3cc(Cl)ccc3C[C@H]2O)C1` [Example 11s, 1-[1-((1R,2R)-6-Chloro-2-hydroxy-indan-1-yl)-3-(4-fluoro-phenyl)-1,4,6,7-tetrahydro-pyrazolo[4,3-c]pyridin-5-yl]-ethanone] was tested. Which IC50 did it give?
Its IC50 is 804 nM.

Which IC50 does the source give for `CC(=O)N1CCc2c(c(-c3cccc(C#N)c3)nn2[C@@H]2c3cc(F)cc(F)c3C[C@H]2O)C1` [Example 11t, 3-[5-Acetyl-1-((1R,2R)-4,6-difluoro-2-hydroxy-indan-1-yl)-4,5,6,7-tetrahydro-1H-pyrazolo[4,3-c]pyridin-3-yl]-benzonitrile] here?
The IC50 was 881 nM.
